Experimental data: PubChem BioAssay (NCI)
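48-hour exposure; five concentrations; linearly interpolated endpoints. The concentration for 50% growth inhibition is given as GI50. Definition used: TGI = concentration required for complete inhibition of growth.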

Legend:
Experiment in all cases: growth of human tumour cells (NCI), 48 h
A498 renal = tested on: A498 renal
IGROV1 ovarian = tested on: IGROV1 ovarian
786-0 renal = tested on: 786-0 renal
SK-OV-3 ovarian = tested on: SK-OV-3 ovarian
ACHN renal = tested on: ACHN renal
CAKI-1 renal = tested on: CAKI-1 renal
HOP-92 NSCLC = tested on: HOP-92 NSCLC
TK-10 renal = tested on: TK-10 renal
SR leukemia = tested on: SR leukemia
SK-MEL-2 melanoma = tested on: SK-MEL-2 melanoma

**Q.** What does the source list for `Cc1cc(=O)n(-c2ccccc2)c(=O)o1`?
**A.** TGI (A498 renal): > 100 µM; TGI (IGROV1 ovarian): > 100 µM; TGI (786-0 renal): > 100 µM; TGI (SK-OV-3 ovarian): > 100 µM; TGI (ACHN renal): > 100 µM; TGI (CAKI-1 renal): > 100 µM; TGI (HOP-92 NSCLC): > 100 µM; TGI (TK-10 renal): > 100 µM; TGI (SR leukemia): > 100 µM; TGI (SK-MEL-2 melanoma): > 100 µM

**Q.** Which results are given for `COc1cc(N2CCN(C(C)C)CC2)ccc1Nc1nc(Nc2cccc3ncccc23)c2cc[nH]c2n1`?
**A.** GI50 (A498 renal): 0.811 µM; TGI (A498 renal): 12 µM; GI50 (IGROV1 ovarian): 12.1 µM; TGI (IGROV1 ovarian): > 25 µM; GI50 (786-0 renal): 5.27 µM; TGI (786-0 renal): 12.4 µM; GI50 (SK-OV-3 ovarian): 5.58 µM; TGI (SK-OV-3 ovarian): 19.1 µM; GI50 (ACHN renal): 7.45 µM; TGI (ACHN renal): > 25 µM; GI50 (CAKI-1 renal): 10 µM; TGI (CAKI-1 renal): > 25 µM; GI50 (HOP-92 NSCLC): 0.464 µM; TGI (HOP-92 NSCLC): 2.85 µM; GI50 (TK-10 renal): 3.97 µM; TGI (TK-10 renal): 19.4 µM; GI50 (SR leukemia): 1.14 µM; TGI (SR leukemia): > 11.1 µM; GI50 (SK-MEL-2 melanoma): 4.63 µM; TGI (SK-MEL-2 melanoma): 11.5 µM

**Q.** Which TGI (A498 renal) does the source give for `Cc1ccc(NC(=O)CC/C(CC(=O)C(C)(C)C)=N/NC(=O)C(N)=O)cc1C` here?
**A.** > 100 µM

**Q.** And the TGI (IGROV1 ovarian)?
**A.** > 100 µM

**Q.** What about the TGI (786-0 renal) of the same molecule?
**A.** > 100 µM

**Q.** And the TGI (SK-OV-3 ovarian)?
**A.** > 100 µM

**Q.** And the TGI (ACHN renal)?
**A.** > 100 µM

**Q.** And the TGI (CAKI-1 renal)?
**A.** > 100 µM

**Q.** What about the TGI (HOP-92 NSCLC) of the same molecule?
**A.** > 100 µM

**Q.** And the TGI (TK-10 renal)?
**A.** > 100 µM

**Q.** And the TGI (SR leukemia)?
**A.** > 100 µM

**Q.** And the TGI (SK-MEL-2 melanoma)?
**A.** > 100 µM

**Q.** How did the GI50 (A498 renal) turn out when `Cn1cc(C2=C(c3c4n(c5ccccc35)CCCC4)C(=O)NC2=O)c2ccccc21` was run?
**A.** 5.19 µM

**Q.** What about the TGI (A498 renal) of the same molecule?
**A.** > 25 µM

**Q.** And the GI50 (IGROV1 ovarian)?
**A.** > 8.23 µM

**Q.** What about the TGI (IGROV1 ovarian) of the same molecule?
**A.** > 25 µM

**Q.** And the GI50 (786-0 renal)?
**A.** > 17.8 µM

**Q.** What about the TGI (786-0 renal) of the same molecule?
**A.** > 25 µM

**Q.** And the GI50 (SK-OV-3 ovarian)?
**A.** > 15.3 µM

**Q.** What about the TGI (SK-OV-3 ovarian) of the same molecule?
**A.** > 25 µM

**Q.** What about the GI50 (ACHN renal) of the same molecule?
**A.** 20.4 µM

**Q.** What about the TGI (ACHN renal) of the same molecule?
**A.** > 25 µM

**Q.** And the GI50 (CAKI-1 renal)?
**A.** 8.1 µM

**Q.** And the TGI (CAKI-1 renal)?
**A.** > 25 µM

**Q.** And the GI50 (HOP-92 NSCLC)?
**A.** 8.89 µM

**Q.** And the TGI (HOP-92 NSCLC)?
**A.** > 25 µM

**Q.** What about the GI50 (TK-10 renal) of the same molecule?
**A.** > 20.1 µM

**Q.** And the TGI (TK-10 renal)?
**A.** > 25 µM

**Q.** What about the GI50 (SR leukemia) of the same molecule?
**A.** 5.92 µM

**Q.** What about the TGI (SR leukemia) of the same molecule?
**A.** > 25 µM

**Q.** What about the GI50 (SK-MEL-2 melanoma) of the same molecule?
**A.** 10.1 µM

**Q.** And the TGI (SK-MEL-2 melanoma)?
**A.** > 25 µM

**Q.** What does the source list for `NC(N)=NS(=O)(=O)c1ccc(Nc2c3ccccc3nc3c(C(=O)N4CCN(CCO)CC4)cccc23)cc1`?
**A.** TGI (A498 renal): > 100 µM; TGI (IGROV1 ovarian): > 100 µM; TGI (786-0 renal): > 100 µM; TGI (SK-OV-3 ovarian): > 100 µM; TGI (ACHN renal): > 100 µM; TGI (CAKI-1 renal): > 100 µM; TGI (HOP-92 NSCLC): > 100 µM; TGI (TK-10 renal): > 100 µM; TGI (SR leukemia): > 100 µM; TGI (SK-MEL-2 melanoma): > 100 µM

**Q.** Which TGI (A498 renal) does the source give for `CC(C)N(C(=O)C12C3C4C5C3C1(C(=O)N(C(C)C)C(C)C)C5(C#N)C42)C(C)C` (stereo not given) here?
**A.** > 100 µM

**Q.** And the TGI (IGROV1 ovarian)?
**A.** > 100 µM

**Q.** And the TGI (786-0 renal)?
**A.** > 100 µM

**Q.** And the TGI (SK-OV-3 ovarian)?
**A.** > 100 µM

**Q.** What about the TGI (ACHN renal) of the same molecule?
**A.** > 100 µM

**Q.** And the TGI (CAKI-1 renal)?
**A.** > 100 µM

**Q.** What about the TGI (HOP-92 NSCLC) of the same molecule?
**A.** > 100 µM

**Q.** What about the TGI (TK-10 renal) of the same molecule?
**A.** > 100 µM

**Q.** And the TGI (SR leukemia)?
**A.** 66.4 µM

**Q.** And the TGI (SK-MEL-2 melanoma)?
**A.** > 100 µM

**Q.** `CC12CCC([C@H](N3CCOCC3)/C1=N\OCCN1CCCC1)C2(C)C` (stereo not given in full) was tested. Which TGI (A498 renal) did it give?
**A.** > 100 µM

**Q.** What about the TGI (IGROV1 ovarian) of the same molecule?
**A.** > 100 µM

**Q.** What about the TGI (786-0 renal) of the same molecule?
**A.** > 100 µM

**Q.** What about the TGI (SK-OV-3 ovarian) of the same molecule?
**A.** > 100 µM

**Q.** And the TGI (ACHN renal)?
**A.** > 100 µM

**Q.** And the TGI (CAKI-1 renal)?
**A.** > 100 µM

**Q.** And the TGI (HOP-92 NSCLC)?
**A.** > 100 µM

**Q.** And the TGI (TK-10 renal)?
**A.** > 100 µM

**Q.** What about the TGI (SR leukemia) of the same molecule?
**A.** > 100 µM

**Q.** And the TGI (SK-MEL-2 melanoma)?
**A.** > 100 µM

**Q.** For `C/C(=N/NC(=O)c1ccncc1)c1ccc(NC(=O)C(=O)Nn2c(=S)[nH]c3ccccc3c2=O)cc1`, which TGI (A498 renal) is on record?
**A.** > 100 µM

**Q.** And the TGI (IGROV1 ovarian)?
**A.** > 100 µM

**Q.** What about the TGI (786-0 renal) of the same molecule?
**A.** > 100 µM

**Q.** What about the TGI (SK-OV-3 ovarian) of the same molecule?
**A.** > 100 µM

**Q.** What about the TGI (ACHN renal) of the same molecule?
**A.** > 100 µM

**Q.** And the TGI (CAKI-1 renal)?
**A.** > 100 µM

**Q.** And the TGI (HOP-92 NSCLC)?
**A.** > 100 µM

**Q.** And the TGI (TK-10 renal)?
**A.** > 100 µM

**Q.** And the TGI (SR leukemia)?
**A.** > 100 µM

**Q.** What about the TGI (SK-MEL-2 melanoma) of the same molecule?
**A.** > 100 µM

**Q.** `COc1cccc(C(=O)Nc2ccc(CN3CCc4nc5cc(OC)c(OC)cc5cc43)cc2)c1` was tested. Which GI50 (A498 renal) did it give?
**A.** 1.67 µM

**Q.** And the TGI (A498 renal)?
**A.** 9.07 µM

**Q.** And the GI50 (IGROV1 ovarian)?
**A.** 5.15 µM

**Q.** And the TGI (IGROV1 ovarian)?
**A.** > 100 µM

**Q.** What about the GI50 (786-0 renal) of the same molecule?
**A.** 3.02 µM

**Q.** What about the TGI (786-0 renal) of the same molecule?
**A.** 9.71 µM

**Q.** And the GI50 (SK-OV-3 ovarian)?
**A.** 18.5 µM

**Q.** What about the TGI (SK-OV-3 ovarian) of the same molecule?
**A.** > 100 µM

**Q.** And the GI50 (ACHN renal)?
**A.** 3.08 µM

**Q.** And the TGI (ACHN renal)?
**A.** > 100 µM

**Q.** And the GI50 (CAKI-1 renal)?
**A.** 3 µM

**Q.** What about the TGI (CAKI-1 renal) of the same molecule?
**A.** 20.9 µM

**Q.** And the GI50 (HOP-92 NSCLC)?
**A.** 1.92 µM

**Q.** And the TGI (HOP-92 NSCLC)?
**A.** 7.45 µM

**Q.** And the GI50 (TK-10 renal)?
**A.** 3.78 µM

**Q.** And the TGI (TK-10 renal)?
**A.** 21.4 µM

**Q.** And the GI50 (SR leukemia)?
**A.** 3.07 µM

**Q.** What about the TGI (SR leukemia) of the same molecule?
**A.** 9.64 µM

**Q.** What about the GI50 (SK-MEL-2 melanoma) of the same molecule?
**A.** 8.8 µM

**Q.** What about the TGI (SK-MEL-2 melanoma) of the same molecule?
**A.** 22.4 µM
